Values quoted from earlier work as cited in US20120301532A1, “COMPOSITIONS AND METHODS FOR TREATING MATERIALS WITH INSECTICIDES AND POTENTIATING AGENTS” (ALLERGY TECHNOLOGIES, LLC, priority 2011, published 2012).

Tested on: bed bugs
Conditions: bed bug attractants, background statement

## O=C=O [CO2]
  effective attractant range: ≥ 86 centimeters
